Test results from patent US20080108706A1, “Chemical resection of pancreas” (priority 1999, published 2008).

What was measured:
[1] = Non-tumor-bearing toxicity controls, same regimens; type: in vivo
pancreas = assay: Pancreas anatomy and function in DEHSPM-treated animals; type: in vivo; settings: equimolar dose
Experimental: Two animals were also treated with DEHSPM at a dose equimolar to the (HO)2DEHSPM dosage and sacrificed at 1- and 75-days after the final treatment. […] At 1-day post-treatment, the total amount of drug: (parent+metabolites)1-day post-treatment=951 μm. […] At 75-days post-treatment, a substantial amount of DEHSPM remains in the pancreas: (parent+metabolites)75-days post-treatment=595 μm.
The nearly normal polyamine pools are mirrored by the anatomy.

[2] = system: pancreatic native polyamine pools; assay: Tissue drug and native polyamine levels (pancreas, liver) in treated dogs; type: in vivo, beagles
Description: The two dogs (#490 and 494) were fed a prescription canned and dry dog food and were supplemented with Viokase, a pancreatic enzyme preparation, by mixing three tablets with food or by oral administration immediately before each feeding. The dogs were maintained on this regimen for approximately three weeks. During this time, their weight and blood chemistries were closely monitored. The Viokase supplementation was then stopped and the same parameters were again evaluated. One week after the Viokase administration had ceased, the animals were euthanized and tissues were taken for histology and for the determination of tissue polyamine levels.
As the pancreatic insufficiency side-effect that was observed after the administration of the (R,R)—(HO)2DEHSPM to the beagles may have been related to the (R,R)-chirality of the molecule, the (S,S)-enantiomer was synthesized and was compared in a head-to-head fashion with the (R,R)-enantiomer. To perform this experiment, five male beagles approximately 6-8 months of age were obtained from Harlan Sprague Dawley. There were provided with food and water ad libitum and were allowed to acclimate to their new surroundings for two weeks. The animals were weighed prior to starting drug administration and were weighed once per week during the drug dosing period. A CBC and chemistry panel and a Holter monitor were performed once per week. In addition to the usual tests, additional pancreatic function-specific tests were also performed. These additional evaluations included a fecal trypsin test, examination of the feces for fecal fat and serum trypsin-like immunoreactivity determinations. It was hoped that these signs of pancreatic insufficiency would only appear in the animals given the (R,R)-enantiomer and would not be observed in the dogs that were given the (S,S)-molecule. The pancreatic insufficiency may not become evident until approximately 7-8 weeks post-drug. At the conclusion of the experiment, all of the animals were sacrificed and the histology and tissue polyamine levels were determined.
• 1. Dogs #468 and 500 were given (R,R)—(HO)2DEHSPM subcutaneously twice daily for 13 days. • 2. They were fed Purina Dog Chow ad libitum and given free access to water. • 3. Polyamine levels in the pancreas were also analyzed at several time points post-drug. • 4. At the start of the experiment, dog #468 weighed 14.4 kg and dog #500 weighed 12.8 kg. The latter animal's weight never exceeded 13.2 kg. At the end of the drug dosing period, dog #468 weighed 13.0 kg, a loss of 1.4 kg; dog #500 weighed 13.2 kg, a gain of 0.4 kg. • 5. […] The pancreatic native polyamine pools (most especially SPD) were markedly diminished compared to untreated control tissue: [SPM]control=3,985 μm v. [SPM10-days post-treatment=2,548 μm (64% of control) [SPD]control=2,820 μm v [SPD]10-days post-treatment=721 μm (25.6% of control) • 6. Dog #468 was bright, alert and responsive until day thirteen of drug administration. […] The dog was fed boiled chicken and rice, as well as Nutrical (a caloric supplement) and cat food and was slowly weaned back to regular dog food. Frank and/or occult blood was found in the dog's stool until about 17-days post-drug. • 7. Dog #500 was bright, alert and responsive throughout the experiment. […] However, stool consistency had normalized by one week post-drug. • 8. […] The inability to digest fats was confirmed when this test was repeated and the fatty meal was supplemented with Viokase (a pancreatic enzyme supplement). […] (2.15 mg/kg every 12 hours) for 13 days • Route: subcutaneously • 1. Dogs #440 and 476 were given (S,S)— (HO)2DEHSPM subcutaneously twice daily for 13 days. • […]. They were fed Purina Dog Chow ad libitum and given free access to water. • 3. At the start of the experiment, dog #440 weighed 11.8 kg.
Two animals were also treated with DEHSPM at a dose equimolar to the (HO)2DEHSPM dosage and sacrificed at 1- and 75-days after the final treatment. […]

[3] = system: Pancreatic Ductal Adenocarcinoma #03; assay: Evaluation against early stage pancreatic ductal adenocarcinoma #03 in BDF mice; type: in vivo
Description: Male BDF mice (12 weeks old, weight approximately 28.9 g) were implanted with the pancreatic ductal cell carcinoma #03 3 days before beginning treatment with (HO)2DEHSPM.

[4] = group 3, NTB, IV QD 3, 4, 6-9, 14, 17, 18, total dosage 240 mg/kg
[5] = group 3, NTB, total dosage 240 mg/kg IV
[6] = group 5, NTB, IV QD 3-18, total dosage 205 mg/kg
[7] = group 5, NTB, total dosage 205 mg/kg IV
[8] = group 7, NTB, IV QD 3-18, total dosage 102.5 mg/kg
[9] = group 7, NTB, total dosage 102.5 mg/kg IV
[10] = 1-day post-treatment, equimolar dose
[11] = 75-days post-treatment, equimolar dose
[12] = group 2, tumor-bearing, IV QD 3, 4, 6-9, 14, 17, 18, total dosage 240 mg/kg
[13] = group 2, tumor-bearing, total dosage 240 mg/kg IV
[14] = group 4, tumor-bearing, IV QD 3-18, total dosage 205 mg/kg
[15] = group 4, tumor-bearing, total dosage 205 mg/kg IV
[16] = group 6, tumor-bearing, total dosage 102.5 mg/kg IV

## CCNCCCCNCCCCNCCCCNCC [DEHSPM, reference compound]
[1]; [4]
  Mean Body Wt. Loss: −8.5 g/mouse
  Percent Body Wt. Loss: −30.0%
[1]; [5]
  Day of Wt. Loss Nadir: 35 days
  Drug Deaths (days of death): 0/2
[1]; [6]
  Mean Body Wt. Loss: −7.5 g/mouse
  Percent Body Wt. Loss: −26.0%
[1]; [7]
  Day of Wt. Loss Nadir: 35 days
  Drug Deaths (days of death): 0/2
[1]; [8]
  Mean Body Wt. Loss: −1.0 g/mouse
  Percent Body Wt. Loss: −3.0%
[1]; [9]
  Day of Wt. Loss Nadir: 23 days
  Drug Deaths (days of death): 0/2
pancreas; 75-days post-treatment
  pancreas anatomy: essentially normal macroscopically and microscopically
pancreas
  exocrine and endocrine pancreatic functions: appeared normal
[2]; 1-day post-treatment, dose equimolar to the (HO)2DEHSPM dosage
  total amount of drug (parent+metabolites) in pancreas: 951 μm
[2]; [10]
  [SPD] in pancreas: 863 μm
  [SPD] in pancreas, % of control: 30.6 % of control
  [SPM] in pancreas: 2,770 μm
  [SPM] in pancreas, % of control: 69.5 % of control
[2]; [11]
  PUT in pancreas: 60 μm
  [SPD] in pancreas: 1,572 μm
  [SPD] in pancreas, % of control: 55.7 % of control
  [SPM] in pancreas: 3,162 μm
  [SPM] in pancreas, % of control: 79.3 % of control
  drug (parent+metabolites) in pancreas: 595 μm
[3]; [12]
  Mean Body Wt. Loss: −11.2 g/mouse
  Percent Body Wt. Loss: −38.0%
[3]; [13]
  Day of Wt. Loss Nadir: 35 days
  Drug Deaths (days of death): 0/5
[3]; [14]
  Mean Body Wt. Loss: −8.6 g/mouse
  Percent Body Wt. Loss: −29.0%
[3]; [15]
  Day of Wt. Loss Nadir: 35 days
  Drug Deaths (days of death): 0/5
[3]; group 6, tumor-bearing, IV QD 3-18, total dosage 102.5 mg/kg
  Mean Body Wt. Loss: −0.4 g/mouse
[3]; [16]
  Day of Wt. Loss Nadir: 7 days
  Drug Deaths (days of death): 0/5
